# From patent US8663912B2, “Fluorogenic substrate for ADAMTS13” (Washington University, priority 2011, dated 2014)
# * marks the point of attachment. X1 = CC1(C)C(/C=C/C2=C(Cl)C(=C/C=C3/N(CCCCCC(=O)*)c4ccc5cc(S(=O)(=O)O)ccc5c4C3(C)C)/CCC2)=[N+](CCCS(=O)(=O)[O-])c2ccc(N(CCCS(=O)(=O)O)CCCS(=O)(=O)O)cc21; X2 = CC(C)(C)c1cc(/C=C/C=C2\N(CCCS(=O)(=O)O)c3ccc(S(=O)(=O)O)cc3C2(C)CCCC(=O)CCN2C(=O)CC(*)C2=O)c2ccc(N(CCCS(=O)(=O)[O-])CCCS(=O)(=O)O)cc2[o+]1
# Target: T1, ADAMTS13 (Homo sapiens, UniProt Q76LX8)
# T1 sequence (Q76LX8 75-1427): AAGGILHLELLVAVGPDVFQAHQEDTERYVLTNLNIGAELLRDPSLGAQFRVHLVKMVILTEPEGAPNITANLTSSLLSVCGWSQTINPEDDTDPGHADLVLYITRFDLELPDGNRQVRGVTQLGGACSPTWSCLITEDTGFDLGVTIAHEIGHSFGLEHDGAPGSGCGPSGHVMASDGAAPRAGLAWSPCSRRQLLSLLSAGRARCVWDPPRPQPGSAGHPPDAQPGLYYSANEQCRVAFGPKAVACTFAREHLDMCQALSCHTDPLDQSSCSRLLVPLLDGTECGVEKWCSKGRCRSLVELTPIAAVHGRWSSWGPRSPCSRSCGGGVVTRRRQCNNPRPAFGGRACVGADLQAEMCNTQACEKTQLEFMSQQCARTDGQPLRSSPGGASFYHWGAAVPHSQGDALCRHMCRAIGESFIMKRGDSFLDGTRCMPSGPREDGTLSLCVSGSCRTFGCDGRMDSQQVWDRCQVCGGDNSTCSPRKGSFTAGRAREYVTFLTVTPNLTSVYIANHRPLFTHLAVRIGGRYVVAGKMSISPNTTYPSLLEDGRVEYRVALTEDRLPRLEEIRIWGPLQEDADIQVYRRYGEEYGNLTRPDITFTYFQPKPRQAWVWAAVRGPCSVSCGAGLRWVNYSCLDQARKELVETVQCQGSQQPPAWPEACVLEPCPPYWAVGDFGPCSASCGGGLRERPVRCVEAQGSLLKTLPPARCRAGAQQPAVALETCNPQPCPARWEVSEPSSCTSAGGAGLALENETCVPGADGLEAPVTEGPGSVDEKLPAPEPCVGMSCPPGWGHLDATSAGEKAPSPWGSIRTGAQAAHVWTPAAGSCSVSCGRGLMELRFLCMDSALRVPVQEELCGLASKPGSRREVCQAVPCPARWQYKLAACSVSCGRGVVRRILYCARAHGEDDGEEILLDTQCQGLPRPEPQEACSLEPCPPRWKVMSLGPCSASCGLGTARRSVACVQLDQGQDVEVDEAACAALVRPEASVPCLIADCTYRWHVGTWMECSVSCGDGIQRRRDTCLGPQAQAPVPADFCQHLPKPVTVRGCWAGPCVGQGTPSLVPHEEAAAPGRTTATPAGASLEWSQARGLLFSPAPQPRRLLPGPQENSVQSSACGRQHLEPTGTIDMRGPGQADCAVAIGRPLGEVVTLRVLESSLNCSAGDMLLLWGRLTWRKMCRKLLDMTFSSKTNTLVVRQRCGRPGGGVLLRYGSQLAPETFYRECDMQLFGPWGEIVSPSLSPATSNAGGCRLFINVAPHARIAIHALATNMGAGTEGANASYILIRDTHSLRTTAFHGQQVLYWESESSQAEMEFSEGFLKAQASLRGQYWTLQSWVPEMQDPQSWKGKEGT
# Assay: ADAMTS13 activity of plasma samples with FRETS-rVWF71 substrate
# Type: biochemical
# Set-up: from tissue; host or cells: human plasma or serum (pooled normal plasma, healthy donors, TTP patients)
# Conditions: samples from patients with idiopathic TTP
# Procedure: Assays were performed at 30° C. Samples (100 μL) of plasma or serum, diluted as necessary in assay buffer, were pipetted in duplicate in 96 well white microplates (Optiplate-96, PerkinElmer, Waltham, Mass.). Reaction was initiated by addition of 100 μL substrate in assay buffer. Cleavage of FRETS-rVWF71 was detected as an increase in fluorescence compared to control reactions without added enzyme at 2 min intervals using a Victor^2V Multilabel Counter (PerkinElmer, Waltham, Mass.) or Synergy H1 Hybrid Multi-Mode Microplate Reader (Biotek, Winooski, Vt.) equipped with 635±10 nm excitation and 660±10 nm emission filters. Initial velocities were determined by fitting progress curves to the polynomial ΔF=A+Bt+Ct^2, where ΔF is the change in fluorescence, t is time, A is the y-intercept, B is the initial velocity (slope), and the term Ct^2 accounts for any decline in velocity due to substrate consumption or photobleaching.
# In these experiments, frozen Li^+-heparin plasma samples were obtained from 100 healthy controls (Biological Specialty Corp., Colmar, Pa.) deidentified except for demographic information on gender, age, and ethnicity. Pooled normal Li^+-heparin plasma (PNP) for assay standardization was prepared from at least 35 donors. […] activity of randomly selected controls samples was determined by the FRETS-VWF73 method. […]
substance,measurement,value
X1-GQAPNLVYMVTGC(X2)PASDEIRRLPGDIQVVPIGVGPNANVQELERIGWPNAPILIQDFETLPREAPDLVLQR [FRETS-rVWF71],sensitivity of ADAMTS13 activity assay relative to FRETS-VWF73,20 fold
